Data as given in patent US7495027B2, “3-aryl-4-hydroxyfuranone compounds and the human and animal health use thereof” (Wyeth, priority 2003, dated 2009).
Converted amounts (≈) assume the structure as drawn.

molecular target: T1, S. aureus Uridine-diphosphate-N-acetylmuramoyl-L-alanine: D-glutamate liease, MurD (Staphylococcus aureus, UniProt Q2FZ92); assay: biochemical; conditions: (S) S. aureus enzyme
T1 sequence (Q2FZ92 1-449): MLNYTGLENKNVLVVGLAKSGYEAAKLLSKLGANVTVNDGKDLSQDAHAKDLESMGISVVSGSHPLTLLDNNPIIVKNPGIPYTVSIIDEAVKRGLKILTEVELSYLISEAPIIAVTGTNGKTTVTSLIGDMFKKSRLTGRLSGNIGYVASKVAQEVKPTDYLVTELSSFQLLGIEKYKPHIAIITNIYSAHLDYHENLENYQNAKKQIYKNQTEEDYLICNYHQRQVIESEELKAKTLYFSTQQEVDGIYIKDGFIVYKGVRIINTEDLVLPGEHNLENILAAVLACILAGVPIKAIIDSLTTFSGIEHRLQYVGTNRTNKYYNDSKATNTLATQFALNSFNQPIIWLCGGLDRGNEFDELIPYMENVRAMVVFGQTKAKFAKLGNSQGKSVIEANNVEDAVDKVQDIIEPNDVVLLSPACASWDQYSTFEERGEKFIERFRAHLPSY
Summary of the method: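 Test solutions, 10 mg/mL stocks in DMSO, were brought to 100 μg/mL with 50 mM Tris/HCl (pH 8.5). Their inhibition of MurD, the enzyme of the fourth cell wall biosynthesis step, was measured.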

SMILES | IC50 [µM]
O=C1O/C(=C\c2cccc3ccccc23)C(O)=C1c1ccc(Cl)cc1 [Example 4, 3-(4-Chlorophenyl)-4-hydroxy-5-[(Z)-1-naphthylmethylidene]-furan-2-(5H)-one] | 68.8
CC(=O)c1ccccc1-c1ccc(/C=C2\OC(=O)C(c3cc(Cl)cc(Cl)c3)=C2O)cc1C [Example 40] | 15
O=C1O/C(=C\c2cccc(-c3ccc(Cl)c(Cl)c3)c2)C(O)=C1c1ccc(Cl)c(Cl)c1 [Example 135] | 12.5

test system: enterococci; assay: Minimum inhibitory concentration, microdilution broth method, enterococci; format: cell-based; conditions: Enterococcus faecalis, E. faecalis GC 2242; Mueller-Hinton broth, 18-22 hours at 35° C.; read-out: MIC E. faecalis GC 2242
Summary of the method: (§1)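 Broth microdilution MIC per NCCLS M7-A5. Staphylococci and enterococci tested in Mueller-Hinton broth; streptococci in Mueller-Hinton broth with 5% lysed horse blood. Strains include clinical isolates resistant to methicillin, penicillin and/or vancomycin.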

SMILES | MIC [µg/mL]
O=C1O/C(=C\c2cccc3ccccc23)C(O)=C1c1ccc(Cl)cc1 [Example 4, 3-(4-Chlorophenyl)-4-hydroxy-5-[(Z)-1-naphthylmethylidene]-furan-2-(5H)-one] | 8 (≈ 22.9 µM)
CC(=O)c1ccccc1-c1ccc(/C=C2\OC(=O)C(c3cc(Cl)cc(Cl)c3)=C2O)cc1C [Example 40] | 2 (≈ 4.3 µM)
O=C1O/C(=C\c2cccc(-c3ccc(Cl)c(Cl)c3)c2)C(O)=C1c1ccc(Cl)c(Cl)c1 [Example 135] | 4 (≈ 8.37 µM)

same assay, conditions: Enterococcus faecalis, E. faecalis GC 4555; Mueller-Hinton broth, 18-22 hours at 35° C.; read-out: MIC E. faecalis GC 4555

SMILES | MIC [µg/mL]
O=C1O/C(=C\c2cccc3ccccc23)C(O)=C1c1ccc(Cl)cc1 [Example 4, 3-(4-Chlorophenyl)-4-hydroxy-5-[(Z)-1-naphthylmethylidene]-furan-2-(5H)-one] | 32 (≈ 91.7 µM)
CC(=O)c1ccccc1-c1ccc(/C=C2\OC(=O)C(c3cc(Cl)cc(Cl)c3)=C2O)cc1C [Example 40] | 2 (≈ 4.3 µM)
O=C1O/C(=C\c2cccc(-c3ccc(Cl)c(Cl)c3)c2)C(O)=C1c1ccc(Cl)c(Cl)c1 [Example 135] | 4 (≈ 8.37 µM)

test system: Streptococci; assay: Minimum inhibitory concentration, microdilution broth method, streptococci; format: cell-based; conditions: S. pneumo GC 1894; Mueller-Hinton broth with 5% horse blood, 18-22 hours at 35° C.
Summary of the method: as §1

SMILES | MIC [µg/mL]
O=C1O/C(=C\c2cccc3ccccc23)C(O)=C1c1ccc(Cl)cc1 [Example 4, 3-(4-Chlorophenyl)-4-hydroxy-5-[(Z)-1-naphthylmethylidene]-furan-2-(5H)-one] | 1 (≈ 2.87 µM)
CC(=O)c1ccccc1-c1ccc(/C=C2\OC(=O)C(c3cc(Cl)cc(Cl)c3)=C2O)cc1C [Example 40] | < 0.125
O=C1O/C(=C\c2cccc(-c3ccc(Cl)c(Cl)c3)c2)C(O)=C1c1ccc(Cl)c(Cl)c1 [Example 135] | 1 (≈ 2.09 µM)

molecular target: E. coli UDP-N-acetylglucosamine enolpyruvoyl transferase, MurA (Escherichia coli, UniProt P0A749); assay: biochemical; conditions: (E) E. coli enzyme
Sequence (P0A749 whole entry): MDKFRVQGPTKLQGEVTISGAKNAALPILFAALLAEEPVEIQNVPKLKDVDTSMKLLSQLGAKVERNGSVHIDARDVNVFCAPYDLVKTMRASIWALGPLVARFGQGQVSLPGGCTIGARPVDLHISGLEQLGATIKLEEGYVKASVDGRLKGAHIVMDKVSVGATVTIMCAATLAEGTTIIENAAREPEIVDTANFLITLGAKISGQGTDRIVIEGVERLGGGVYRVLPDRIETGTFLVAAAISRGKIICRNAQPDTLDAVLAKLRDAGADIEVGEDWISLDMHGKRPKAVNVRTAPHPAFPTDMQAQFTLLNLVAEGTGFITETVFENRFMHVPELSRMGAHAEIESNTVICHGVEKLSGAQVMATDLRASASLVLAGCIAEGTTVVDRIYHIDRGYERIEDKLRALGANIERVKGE
Summary of the method: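 Enzyme in 50 mM Tris/HCl pH 8.0 with 5 mM DTT and 20% glycerol was pre-incubated 10 min at 37° C with test compound in DMSO/water. Tris/BME and assay buffer then started the 1 hr, 37° C reaction, with a baseline 340 nm reading taken at start. Stop solution followed, and colour developed 30 minutes.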

SMILES | IC50 [µM]
O=C1O/C(=C\c2cccc(-c3ccc(Cl)c(Cl)c3)c2)C(O)=C1c1ccc(Cl)c(Cl)c1 [Example 135] | 4.18

molecular target: T2, S. aureus UDP-N-acetylglucosamine enolpyruvoyl transferase, MurA (Staphylococcus aureus, UniProt P84058); assay: Inhibitory activity against MurA (S. aureus); format: biochemical; conditions: (S) S. aureus enzyme
T2 sequence (P84058 1-421): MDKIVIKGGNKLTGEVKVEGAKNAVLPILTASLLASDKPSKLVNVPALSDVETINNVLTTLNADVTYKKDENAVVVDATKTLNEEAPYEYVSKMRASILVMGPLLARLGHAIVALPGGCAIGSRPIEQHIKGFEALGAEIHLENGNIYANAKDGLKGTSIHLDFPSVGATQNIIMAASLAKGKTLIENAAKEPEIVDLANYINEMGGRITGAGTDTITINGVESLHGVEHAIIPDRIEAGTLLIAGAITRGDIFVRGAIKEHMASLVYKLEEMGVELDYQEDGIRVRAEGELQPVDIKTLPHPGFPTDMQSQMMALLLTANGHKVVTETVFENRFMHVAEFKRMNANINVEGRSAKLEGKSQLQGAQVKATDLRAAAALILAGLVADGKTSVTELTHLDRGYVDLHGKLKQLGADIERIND
Protocol: Evaluation of the Inhibitory Activity of Test Compounds Against Enzymes which Catalyze Bacterial Cell Wall Biosynthesis
S. aureus and E. coli UDP-N-acetylglucosamine enolpyruvoyl transferase, MurA
(§2) Preparation of Enzyme Solution:
The enzyme solution is prepared by admixing the following: 50 mM Tris/HCl pH 8.0, […] 1 M Tris, 5 mM DTT, […] 1 M DTT, 20% Glycerol 4 ml 50% Glycerol, add water to 10 ml.
(§3) Preparation of Stop Solution:
The stop solution is prepared by mixing the following: 4.2% ammonium molybdate in 4N HCl, 8.4 g/200 ml 4N HCl, 0.045% malachite green, 90 mg/200 ml water, then stir 1 part ammonium molybdate with 2 parts malachite green for 30 min.
A procedure similar to that described by C. T. Walsh in Biochemistry 33, 10646-10651, is used to evaluate the inhibitory activity of test compounds against MurA, the enzyme which catalyzes the first step of bacterial cell wall biosynthesis. Experiments are performed by adding a solution of test compound (in a mixture of dimethylsulfoxide and water) and an enzyme solution to a well. After a pre-incubation period of 10 mintues at 37° C., Tris/BME buffer and assay buffer are added. A start point optical density (OD0) reading is taken at 340 nm immediately following the addition of assay buffer. After incubation for 1 hr at 37° C., the stop solution is added and the color is allowed to develop for 30 minutes. An end point OD1 reading at […] is then taken. […]

SMILES | IC50 [µM]
CC(=O)c1ccccc1-c1ccc(/C=C2\OC(=O)C(c3cc(Cl)cc(Cl)c3)=C2O)cc1C [Example 40] | 30.1

molecular target: T3, S. aureus Uridine-diphosphate-N-acetvimuramoyl: L-alanine lipase, MurC (Staphylococcus aureus, UniProt Q2FXJ0); assay: biochemical; conditions: (S) S. aureus enzyme; read-out: MurC IC50 (converted)
T3 sequence (Q2FXJ0 1-437): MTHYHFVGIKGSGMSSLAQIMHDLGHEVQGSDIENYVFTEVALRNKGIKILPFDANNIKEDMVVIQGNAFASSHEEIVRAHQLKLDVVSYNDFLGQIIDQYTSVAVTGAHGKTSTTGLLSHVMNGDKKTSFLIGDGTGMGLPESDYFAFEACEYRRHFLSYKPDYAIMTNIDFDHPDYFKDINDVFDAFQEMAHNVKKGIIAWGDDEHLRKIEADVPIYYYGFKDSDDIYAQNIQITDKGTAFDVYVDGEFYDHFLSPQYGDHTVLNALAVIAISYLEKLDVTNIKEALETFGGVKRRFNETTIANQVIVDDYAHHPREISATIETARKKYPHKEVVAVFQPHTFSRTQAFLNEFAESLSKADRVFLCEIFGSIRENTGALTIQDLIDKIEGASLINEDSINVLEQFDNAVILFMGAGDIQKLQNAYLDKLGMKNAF
Protocol: S. aureus and E. coli Uridine-diphosphate-N-acetvimuramoyl: L-alanine lipase, MurC
as §2
A 1 mg/mL stock solution of MurC is prepared in a buffer consisting of 20 mM Tris/HCl (pH 8.5) with 2.5 μM BME. The stock solution is further diluted with the buffer to give a final enzyme concentration of 100 μg/mL for the E. coli stock solution and 70 μg/mL for the S. aureus stock solution.
Preparation of Test Compound Solutions:
All test solutions are prepared in DMSO as 10 mg/mL, then diluted with 50 mM Tris/HCl (pH 8.5) to 100 μg/mL.
as §3
The stop solution is prepared by stirring 1 part 4.2% ammonium molydbate in 4N HCl with 2 parts 0.045% malachite green for 30 min.
In this evaluation, the inhibitory activity of a test compound against MurC, the enzyme which catalyzes the third step of bacterial cell wall bioxynthesis is determined. Experiments are performed by adding 2.5 μl buffer, 2.5 μl 0.5M NH4SO2, 5 μl 2 μM L-Ala, 5 μl enzyme solution and 6.5 μl test compound solution to each well in a 96-well microplate. After a pre-incubation period of 10 mins. at 23° C., 3.75 μl of a 0.75 μM solution of UDP-MurNac is added to each well. Following an incubation period of 10 mins. at 37° C., 210 μl stop solution and 50 μl of a 34% w/v sodium citrate solution are added and color is allowed to develop for 10 mins. at 23° C. (Lanzetta et al., Analytical Biochemistry, 1979, 95) Optical density readings are taken at 660 nm using a Molecular Devices Spectra Max 250 with Soft Max software. Controls are performed using the same procedure and omitting the addition of UDP-MurNac. […]
Using these values the IC50 is determined by linear regression analysis.

SMILES | IC50 [µM]
O=C1O/C(=C\c2cccc3ccccc23)C(O)=C1c1ccc(Cl)cc1 [Example 4, 3-(4-Chlorophenyl)-4-hydroxy-5-[(Z)-1-naphthylmethylidene]-furan-2-(5H)-one] | 45.9
CC(=O)c1ccccc1-c1ccc(/C=C2\OC(=O)C(c3cc(Cl)cc(Cl)c3)=C2O)cc1C [Example 40] | 8.6

molecular target: E. coli Uridine-diphosphate-N-acetvimuramoyl: L-alanine lipase, MurC (Escherichia coli, UniProt P17952); assay: Inhibitory activity against MurC (E. coli); format: biochemical; conditions: (E) E. coli enzyme
Sequence (P17952 whole entry): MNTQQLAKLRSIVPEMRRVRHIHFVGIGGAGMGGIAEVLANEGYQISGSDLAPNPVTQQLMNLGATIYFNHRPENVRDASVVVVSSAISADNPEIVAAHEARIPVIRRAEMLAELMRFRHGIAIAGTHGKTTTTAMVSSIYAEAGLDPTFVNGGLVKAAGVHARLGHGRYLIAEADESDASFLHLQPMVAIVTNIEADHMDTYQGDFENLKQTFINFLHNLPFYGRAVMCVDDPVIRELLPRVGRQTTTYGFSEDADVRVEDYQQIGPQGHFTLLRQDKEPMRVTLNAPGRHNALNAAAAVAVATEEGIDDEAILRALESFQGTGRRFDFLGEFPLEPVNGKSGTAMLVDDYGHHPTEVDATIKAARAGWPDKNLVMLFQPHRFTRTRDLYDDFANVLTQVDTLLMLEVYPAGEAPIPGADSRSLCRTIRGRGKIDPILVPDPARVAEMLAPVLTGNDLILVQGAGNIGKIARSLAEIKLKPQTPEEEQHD

SMILES | MurC IC50 [µg/mL]
O=C1O/C(=C\c2cccc3ccccc23)C(O)=C1c1ccc(Cl)cc1 [Example 4, 3-(4-Chlorophenyl)-4-hydroxy-5-[(Z)-1-naphthylmethylidene]-furan-2-(5H)-one] | 7

same assay, conditions: (E) E. coli enzyme; read-out: MurC IC50 (converted)

SMILES | IC50 [µM]
O=C1O/C(=C\c2cccc(-c3ccc(Cl)c(Cl)c3)c2)C(O)=C1c1ccc(Cl)c(Cl)c1 [Example 135] | 12.5

test system: staphylococci; assay: Minimum inhibitory concentration, microdilution broth method, staphylococci; format: cell-based; conditions: Staphylococcus aureus, S. aureus GC 1131; Mueller-Hinton broth, 18-22 hours at 35° C.; read-out: MIC S. aureus GC 1131
Summary of the method: as §1

SMILES | MIC [µg/mL]
O=C1O/C(=C\c2cccc3ccccc23)C(O)=C1c1ccc(Cl)cc1 [Example 4, 3-(4-Chlorophenyl)-4-hydroxy-5-[(Z)-1-naphthylmethylidene]-furan-2-(5H)-one] | 16 (≈ 45.9 µM)
CC(=O)c1ccccc1-c1ccc(/C=C2\OC(=O)C(c3cc(Cl)cc(Cl)c3)=C2O)cc1C [Example 40] | 1 (≈ 2.15 µM)
O=C1O/C(=C\c2cccc(-c3ccc(Cl)c(Cl)c3)c2)C(O)=C1c1ccc(Cl)c(Cl)c1 [Example 135] | 32 (≈ 66.9 µM)

same assay, conditions: Staphylococcus aureus, S. aureus GC 4543; Mueller-Hinton broth, 18-22 hours at 35° C.; read-out: MIC S. aureus GC 4543

SMILES | MIC [µg/mL]
O=C1O/C(=C\c2cccc3ccccc23)C(O)=C1c1ccc(Cl)cc1 [Example 4, 3-(4-Chlorophenyl)-4-hydroxy-5-[(Z)-1-naphthylmethylidene]-furan-2-(5H)-one] | 16 (≈ 45.9 µM)
CC(=O)c1ccccc1-c1ccc(/C=C2\OC(=O)C(c3cc(Cl)cc(Cl)c3)=C2O)cc1C [Example 40] | 1 (≈ 2.15 µM)
O=C1O/C(=C\c2cccc(-c3ccc(Cl)c(Cl)c3)c2)C(O)=C1c1ccc(Cl)c(Cl)c1 [Example 135] | 1 (≈ 2.09 µM)

molecular target: E. coli Enopyruvyl-UPD-N-acetylglucosamine reductase, Mur B (Escherichia coli, UniProt P08373); assay: biochemical; conditions: (E) E. coli enzyme; read-out: MurB IC50 (converted)
Sequence (P08373 whole entry): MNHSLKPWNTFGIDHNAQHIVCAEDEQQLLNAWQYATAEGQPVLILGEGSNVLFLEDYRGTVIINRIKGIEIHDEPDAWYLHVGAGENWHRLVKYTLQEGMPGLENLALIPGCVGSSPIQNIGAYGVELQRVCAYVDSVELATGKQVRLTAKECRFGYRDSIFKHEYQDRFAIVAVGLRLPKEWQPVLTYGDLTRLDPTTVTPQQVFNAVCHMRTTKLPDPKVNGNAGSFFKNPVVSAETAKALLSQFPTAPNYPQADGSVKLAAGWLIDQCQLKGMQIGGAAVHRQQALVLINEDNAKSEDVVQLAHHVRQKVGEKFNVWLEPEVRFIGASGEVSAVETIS

SMILES | IC50 [µM]
O=C1O/C(=C\c2cccc(-c3ccc(Cl)c(Cl)c3)c2)C(O)=C1c1ccc(Cl)c(Cl)c1 [Example 135] | 6.27

molecular target: T4, S. aureus Enopyruvyl-UPD-N-acetylglucosamine reductase, Mur B (Staphylococcus aureus, UniProt P61431); assay: biochemical; conditions: (S) S. aureus enzyme; read-out: MurB IC50 (converted)
T4 sequence (P61431 1-307): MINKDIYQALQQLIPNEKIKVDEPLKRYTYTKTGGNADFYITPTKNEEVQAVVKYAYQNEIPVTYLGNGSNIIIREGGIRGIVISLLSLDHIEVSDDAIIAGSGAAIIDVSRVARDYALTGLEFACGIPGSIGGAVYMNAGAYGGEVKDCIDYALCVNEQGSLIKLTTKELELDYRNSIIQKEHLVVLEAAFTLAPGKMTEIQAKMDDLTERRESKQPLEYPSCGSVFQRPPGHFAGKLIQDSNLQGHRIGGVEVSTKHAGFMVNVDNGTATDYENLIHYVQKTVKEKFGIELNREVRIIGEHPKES

SMILES | IC50 [µM]
O=C1O/C(=C\c2cccc(-c3ccc(Cl)c(Cl)c3)c2)C(O)=C1c1ccc(Cl)c(Cl)c1 [Example 135] | 6.27
